We go through one molecule from patent US9486427B2, “Administration of aerosolised iloprost” (VECTURA GMBH, priority 2012, dated 2016).

Where two headings read alike, the source gives them in different places.

Data set [1] concerns patients with pulmonary arterial hypertension. In words: Clinical pilot study of safety and tolerability of rapidly inhaled nebulised iloprost (Example 3). Type of data set: in vivo, human. On the procedure: A clinical pilot study to evaluate the safety and tolerability of nebulised iloprost administered by inhalation according to the invention was conducted with 4 patients. Eligible were male and female patients with pulmonary arterial hypertension in the age from 18 to 70 years having a mean pulmonary arterial blood pressure (PAP) higher than 25 mm Hg, a pulmonary vascular resistance (PVR) higher than 240 dyn*s*cm^−5, a central venous pressure (CVP) higher than 3 mm Hg, and a pulmonary capillary wedge pressure (PCWP) lower than 12 mm Hg. Excluded were patients with a contraindication for cardiac catheterisation (such as coagulopathy, bleeding disorder, acute infection, severe cardiac dysrhythmia), pregnancy, systemic systolic blood pressure below 110 mm Hg, highly impaired ventricular function with cardiac index below 1.8 L/min*m^2, and known lack of pulmonary vascular reactivity. Patients were monitored by ECG, pulse oxymetry, and non-invasive blood pressure measurement. An intracardiac catheter was introduced into the distal pulmonary artery to measure PAP, CVP, PCWP, and cardiac output. Also measured were the heart rate, systemic arterial pressure (SAP), systemic vascular resistance (SVR), central arterial and venous blood gases. After the initial determination of all parameters the reactivity of the pulmonary vasculature to oxygen (2 to 4 L/min) and nitric oxide (20 ppm) was tested. Subsequently, patients inhaled a single dose of 2.5 μg of nebulised iloprost in two consecutive breaths, using the same inhalation system and iloprost composition as described in Example 1. Haemodynamics parameters and clinical condition of the patients were assessed before and up to 30 minutes after inhalation. In the absence of adverse effects, a second inhalation maneuver with 4 consecutive breaths corresponding to a dose 5 μg iloprost was performed, again followed by an observation period of at least 30 minutes.

Data set [2] concerns patients suffering from pulmonary hypertension (PH). In words: Iloprost inhalation in six further patients (Example 4). Type of data set: in vivo, human. Particulars: rapid inhalation as in Example 3. As to the method: Six further patients suffering from pulmonary hypertension (PH) were treated with iloprost inhalation as in Example 3.
The conditions of data set [3]: cited from earlier work.
The conditions of data set [4]: 2.8 μg in 2 minutes, ultrasonic nebuliser; cited from earlier work.
[5] abbreviates: 2.5 μg and 5 μg rapid inhalation.

On to `CC#CCC(C)[C@H](O)/C=C/[C@@H]1[C@H]2C/C(=C/CCCC(=O)O)C[C@H]2C[C@H]1O` (stereo partly drawn) [Iloprost, 5-{(E)-(1S,5S,6R,7R)-7-hydroxy-6[(E)-(3S,4RS)-3-hydroxy-4-methyl-1-octen-6-inyl]-bi-cyclo[3.3.0]octan-3-ylidene}pentanoic acid], for which, in data set [1] (setting [5]), the “systemic side effects (SAP and SVR changes) versus slow inhalation of iloprost” value is “similar”. Further, in data set [1] (setting [5]), the “therapeutic pulmonary vascular effects (PAP and PVR changes) versus slow inhalation of iloprost” value is reported as “comparable to those observed after conventional iloprost treatment”. For the same molecule, the “tolerability of the treatment” value in data set [1] (2.5 μg in two breaths, then 5 μg in 4 breaths, inhaled, 4 patients) is “all patients tolerated the treatment well”. In addition, the adverse effects entry in data set [2] is “no adverse effects were observed other than the SAP and SVR changes which were mild”. Also, in data set [2] (PAH, iPAH, portopulmonary, CTEPH), the pulmonary vascular effects result is on record as “very comparable to those found in Example 3”. For the same molecule, the solubility result was “sparingly soluble” in data set [3] (aqueous buffer pH 9); “very slightly soluble” in data set [3] (distilled water and aqueous buffer at pH 3 and pH 5); “soluble” in data set [3] (methanol, ethanol, ethyl acetate, acetone and aqueous buffer at pH 7). Also, the aqueous solubility result in data set [3] was “rather poor”. Besides, in data set [4], the “systemic effects of rapid inhalation (drop in blood pressure, decrease in systemic vascular resistance, flush, jaw pain)” value is on record as “adverse systemic effects”.
